Values after ≈ are worked out from the molar mass of the structure shown. Read-outs that look alike come from different tables or passages of the source.
Experiments:
[1] = Aqueous solubility (buffer vs acetonitrile/water, LC-UV); format: physicochemical; conditions: kinetic from dmso stock, 2.5% DMSO
Protocol: The aqueous solubility of the compounds of the invention is determined by comparing the amount dissolved in buffer to the amount in an acetonitrile/water (1/1) solution. Starting from a 10 mM DMSO stock solution aliquots are diluted with acetonitrile/water (1/1) or buffer, respectively. After 24 h of shaking, the solutions are filtrated and analyzed by LC-UV. The amount dissolved in buffer is compared to the amount in the acetonitrile solution.
Solubility is usually being measured from 0.001 to 0.125 mg/mL at a DMSO concentration of 2.5%. If more than 90% of the compound is dissolved in buffer, the value is marked with “>”.

human GPR40 receptor = human GPR40 receptor (Homo sapiens, UniProt O14842); assay: IP1 accumulation measurements using the IPOne assay system; format: cell-based; conditions: 1321N1 cells stably expressing human GPR40; 1 h stimulation at 37° C.
human GPR40 receptor, sequence (O14842 whole entry): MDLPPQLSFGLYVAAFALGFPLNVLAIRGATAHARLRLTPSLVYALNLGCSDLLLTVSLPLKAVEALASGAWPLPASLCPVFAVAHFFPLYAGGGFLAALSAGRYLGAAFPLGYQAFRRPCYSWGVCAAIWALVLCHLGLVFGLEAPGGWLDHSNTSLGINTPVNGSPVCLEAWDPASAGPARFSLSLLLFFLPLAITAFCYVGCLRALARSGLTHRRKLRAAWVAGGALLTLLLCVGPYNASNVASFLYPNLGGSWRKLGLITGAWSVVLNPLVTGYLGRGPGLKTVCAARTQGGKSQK
Protocol: IP1 accumulation measurements using the IPOne assay system—1321N1 cells stably expressing human GPR40 receptor (Euroscreen, Belgium) are seeded 24 h before the assay in white 384-well plates in culture medium containing 10% FCS, 1% Na-Pyruvate and 400 μg/mL G418. IP1 is assayed according to the manufacturer's description (Cisbio Bioassays, France). In brief, the assay is started by substitution of the culture medium by stimulation buffer (Hepes 10 mM, CaCl2) 1 mM, MgCl2 0.5 mM, KCl 4.2 mM, NaCl 146 mM, glucose 5.5 mM and LiCl 50 mM, pH 7.4). Cells are stimulated for 1 h at 37° C., 5% CO2 by addition of the compounds that are diluted in stimulation buffer containing LiCl. Assays are stopped by adding HTRF-conjugates (IP1-d2 and Anti-IP1 cryptate Tb) and lysis buffer, provided by the manufacturer. After an incubation time of 1 h at room temperature plates are measured using an EnVision™, Perkin Elmer. The obtained fluorescence ratios at 665/615 […] are then used to calculate the pEC50 values using Assay Explorer 3.3 Software (Accelrys, Inc.) by interpolation using an IP1 reference curve and subsequent sigmoidal curve fitting allowing for a variable hill slope.

[2] = pH 2.2, 24 h shaking, read-out: Solubility at pH 2.2
[3] = pH 6.8, 24 h shaking, read-out: Solubility at pH 6.8

## Cc1cc(OCCC(C)(C)O)cc(C)c1-c1cccc(COc2ccc([C@H]3C[C@@H]3C(=O)O)nc2)c1 [Example 3, (1S,2S)-2-{5-[4′-(3-Hydroxy-3-methyl-butoxy)-2′,6′-dimethyl-biphenyl-3-ylmethoxy]-pyridin-2-yl}-cyclopropanecarboxylic Acid]
[1]; [2]
  solubility at 24 h: 24 µg/mL (≈ 50.5 µM)
[1]; [3]
  solubility at 24 h: 40 µg/mL (≈ 84.1 µM)
Human GPR40 receptor
  EC50: 19 nM

## Cc1cc(OCCC(C)(C)O)cc(C)c1-c1ccc(F)c2c1CC[C@H]2Oc1ccc([C@H]2C[C@@H]2C(=O)O)cc1 [Example 17 in WO 2013/178575, reference compound]
[1]; [2]
  solubility at 24 h: < 1 µg/mL
[1]; [3]
  solubility at 24 h: < 1 µg/mL

## Cc1cc(-c2nnn(C)n2)cc(C)c1-c1cccc(COc2ccc([C@H]3C[C@@H]3C(=O)O)nc2)c1 [Example 1, (1S,2S)-2-{5-[2′,6′-Dimethyl-4′-(2-methyl-2H-tetrazol-5-yl)-biphenyl-3-ylmethoxy]-pyridin-2-yl}-cyclopropanecarboxylic Acid]
[1]; [2]
  solubility at 24 h: 7 µg/mL (≈ 15.4 µM)
[1]; [3]
  solubility at 24 h: 19 µg/mL (≈ 41.7 µM)
Human GPR40 receptor
  EC50: 5 nM

## Cc1cc(-c2nnn(C)n2)cc(C)c1-c1ccc(F)c2c1CC[C@H]2Oc1ccc([C@H]2C[C@@H]2C(=O)O)cc1 [Example 45 in WO 2013/178575, reference compound]
[1]; [2]
  solubility at 24 h: < 1 µg/mL
[1]; [3]
  solubility at 24 h: < 1 µg/mL
